Laboratory results as given in patent US20140329863A1 (priority 2011, published 2014).
Read-outs that look alike come from different tables or passages of the source.

Tests used:
PrP^C in T98G cells = type: cell-based, human; details: read-out: EC50 (μM) ELISA potency, PrP^C in T98G cells
[1] = Hepatic microsomal stability, human; details: human liver microsomes; for Hepatic Extraction Ratio Human: predicted hepatic extraction; for half-life at 1 μM: human, pH 7.4
[2] = Hepatic microsomal stability, mouse; details: mouse liver microsomes; for Hepatic Extraction Ratio Mouse: predicted hepatic extraction; for half-life at 1 μM: mouse, pH 7.4
[3] = test system: PrP^Sc in dividing ScN2a-cl3 cells; type: cell-based, mouse; design: Dividing ELISA pEC50 (μM) 1st Expt. / Dividing ELISA pEC50 (μM) 2nd Expt. / Dividing ELISA pEC50 (μM) 3rd Expt. / Dividing ELISA pEC50 (μM) Mean: unit not given here; details: for Inhibition of Baseline PrP^5c (%) Dividing Cells ELISA: SPC assay
N2a-cl3 cells [4] = experiment: cells; details: Mus musculus, N2a-cl3, read-out: Dividing Calcein EC50 (μM) Mean (n = 3)
[5] = test system: PrP^Sc in nondividing ScN2a-cl3 cells; type: cell-based, mouse; details: for EC50: read-out: Non-Dividing ELISA EC50 (μM) Mean (n = 3), ScN2a-c13 non-dividing cells, mean n = 3; for Inhibition of Baseline PrP^5c (%) Non-dividing Cells ELISA: SPC assay, nondividing cells
N2a-cl3 cells [6] = test system: N2a-cl3 cells
[7] = test system: PrP^Sc in ScN2a-cl3 cells; type: cell-based, mouse; details: Western immunoblots
[8] = ScN2a-cl3 dividing cells, 1st determination
[9] = ScN2a-cl3 dividing cells, 2nd determination
[10] = ScN2a-cl3 dividing cells, 3rd determination
[11] = ScN2a-cl3 dividing cells, mean of three determinations
[12] = read-out: Dividing ELISA EC50 (μM) 1st Expt., ScN2a-cl3 dividing cells, 1st determination
[13] = read-out: Dividing ELISA EC50 (μM) 2nd Expt., ScN2a-cl3 dividing cells, 2nd determination
[14] = read-out: Dividing ELISA EC50 (μM) 3rd Expt., ScN2a-cl3 dividing cells, 3rd determination
[15] = read-out: Dividing ELISA EC50 (μM) Mean, ScN2a-cl3 dividing cells, mean of three determinations

COc1ccc(Cl)cc1C(=O)N1CC(=O)Nc2ccccc21 [IND116063]
EC50 (PrP^C in T98G cells): 0.647 µM

COc1cccc(N2CCN(C(=O)c3cc(C)ccc3OC)CC2)c1 [IND126339]
Hepatic Extraction Ratio Human [1]: 0.87 | half-life at 1 μM [1]: 10.3 min | EC50 (PrP^C in T98G cells): 0.248 µM | Hepatic Extraction Ratio Mouse [2]: 0.95 | half-life at 1 μM [2]: 3.2 min

CCOc1ccc2c(c1)C(C)=CC(C)(C)N2S(=O)(=O)c1ccc(C)cc1 [IND16365]
EC50 (PrP^C in T98G cells): 0.304 µM

COc1ccc(Cl)cc1NS(=O)(=O)c1ccc(N2CCCC2=O)cc1 [IND126331]
EC50 (PrP^C in T98G cells): 0.684 µM

CCOC(=O)c1[nH]c(C)c(C(=O)c2ccc(C)cc2)c1C [IND5672]
EC50 (PrP^C in T98G cells): 0.593 µM

O=C(Nc1ccc(I)cn1)c1cccc(F)c1 [IND84911]
EC50 (PrP^C in T98G cells): 0.55 µM

Cc1ccn2c(-c3csc(Nc4ccc(N(C)C)nc4)n3)c(C)nc2c1 [IND9756]
EC50 (PrP^C in T98G cells): 0.18 µM

COc1cc(C(=O)c2cc(Cl)ccc2N)cc(OC)c1OC [IND1323]
EC50 (PrP^C in T98G cells): 0.085 µM

CCN(CC)c1ccc2c(c1)OC(N)=C(C#N)C2c1ccccc1 (stereo not drawn) [IND126322]
EC50 (PrP^C in T98G cells): 0.174 µM

Cc1nc2ncccn2c1-c1csc(Nc2ccc(Cl)cc2)n1 [IND115948]
EC50 (PrP^C in T98G cells): 1.85 µM

CCOc1ccc(Nc2nc(-c3c(C)nc4sccn34)cs2)cc1 [IND126328]
Hepatic Extraction Ratio Human [1]: 0.76 | half-life at 1 μM [1]: 21.9 min | EC50 (PrP^C in T98G cells): 0.065 µM | Hepatic Extraction Ratio Mouse [2]: 0.86 | half-life at 1 μM [2]: 9.64 min

Cc1nc2sccn2c1-c1csc(Nc2ccc(N(C)C)nc2)n1 [IND126306]
EC50 (PrP^C in T98G cells): 0.217 µM

CN(C)c1ccc2c(c1)OC(N)=C(C#N)C2c1cccc(F)c1 (stereo not drawn) [IND17990]
EC50 (PrP^C in T98G cells): 0.031 µM

c1ccc(-c2cc(-c3csc(Nc4cc5ccccc5cn4)n3)on2)cc1 [compound 35, Isoquinolin-3-yl-[4-(3-phenylisoxazol-5-yl)-thiazol-2-yl]-amine]
Dividing ELISA pEC50 (μM) 1st Expt. [3, 8]: 5.93 | Dividing ELISA pEC50 (μM) 2nd Expt. [3, 9]: 6.24 | Dividing ELISA pEC50 (μM) 3rd Expt. [3, 10]: 6.18 | Dividing ELISA pEC50 (μM) Mean [3, 11]: 6.12 | EC50 [3, 12]: 1.16 µM | EC50 [3, 13]: 0.573 µM | EC50 [3, 14]: 0.663 µM | EC50 [3, 15]: 0.799 µM | EC50 (N2a-cl3 cells [4]): > 32 µM | EC50 [5]: > 32 µM

Cc1ccc(Nc2nc3c(s2)Cc2ccccc2-3)nc1 [compound 38, (8H-Indeno[1,2-d]thiazol-2-yl)-(5-methylpyridin-2-yl)-amine]
Dividing ELISA pEC50 (μM) 1st Expt. [3, 8]: 5.70 | Dividing ELISA pEC50 (μM) 2nd Expt. [3, 9]: 5.52 | Dividing ELISA pEC50 (μM) 3rd Expt. [3, 10]: 5.63 | Dividing ELISA pEC50 (μM) Mean [3, 11]: 5.62 | EC50 [3, 12]: 1.99 µM | EC50 [3, 13]: 2.99 µM | EC50 [3, 14]: 2.34 µM | EC50 [3, 15]: 2.44 µM | EC50 (N2a-cl3 cells [4]): > 32 µM | EC50 [5]: > 32 µM

COc1cc2c(cc1OC)-c1nc(Nc3ccc(C)cn3)sc1C2 [compound 39, (5,6-Dimethoxy-8H-indeno-[1,2-d]thiazol-2-yl)-(5-methylpyridin-2-yl)-amine]
Dividing ELISA pEC50 (μM) 1st Expt. [3, 8]: 5.46 | Dividing ELISA pEC50 (μM) 2nd Expt. [3, 9]: 5.23 | Dividing ELISA pEC50 (μM) 3rd Expt. [3, 10]: 5.13 | Dividing ELISA pEC50 (μM) Mean [3, 11]: 5.27 | EC50 [3, 12]: 3.45 µM | EC50 [3, 13]: 5.93 µM | EC50 [3, 14]: 7.38 µM | EC50 [3, 15]: 5.59 µM | EC50 (N2a-cl3 cells [4]): > 32 µM | EC50 [5]: > 32 µM

O=C(Nc1ccncc1)C1CCCN1S(=O)(=O)c1ccc2ccccc2c1 (stereo not drawn) [IND86287]
EC50 (PrP^C in T98G cells): 2.65 µM

Cc1cc(C)c(S(=O)(=O)NCc2ccncc2)c(C)c1 [IND18762]
EC50 (PrP^C in T98G cells): 4.13 µM

CCc1nnc(NC(=O)c2ccoc2COc2ccccc2)s1 [IND85692]
EC50 (PrP^C in T98G cells): 2.28 µM

Cc1c(C(=O)OC(C)C)[nH]c2c1C(=O)CC(c1cccs1)C2 (stereo not drawn) [IND116088]
Hepatic Extraction Ratio Human [1]: 0.74 | half-life at 1 μM [1]: 23.9 min | EC50 (PrP^C in T98G cells): 0.303 µM | Hepatic Extraction Ratio Mouse [2]: 0.90 | half-life at 1 μM [2]: 6.88 min

COc1ccccc1C(=O)N1CCN(c2ccccc2OC)CC1 [IND116050]
EC50 (PrP^C in T98G cells): 0.887 µM

COc1ccc(S(=O)(=O)N2CCOc3ccccc32)cc1 [IND116071]
Hepatic Extraction Ratio Human [1]: 0.94 | half-life at 1 μM [1]: 4.53 min | EC50 (PrP^C in T98G cells): 1.71 µM | Hepatic Extraction Ratio Mouse [2]: 0.98 | half-life at 1 μM [2]: 1.53 min

CCOC(=O)c1[nH]c2c(c1C)C(=O)CC(c1ccccc1Cl)C2 (stereo not drawn) [IND126429]
EC50 (PrP^C in T98G cells): 0.497 µM

OCCNCc1cc(Br)ccc1OCc1ccc(Cl)cc1Cl [IND-0033452]
Calcein (N2a-cl3 cells [6]): MW: 405.1 EC50 (nM): ELISA: 2850 Calcein: 27% Western: 1993 | Calcein (value printed in %) (N2a-cl3 cells [6]; mouse): 27% | EC50 ([3]; dividing ScN2a-cl3 cells, read-out: EC50 (nM): ELISA): 2.85 µM | EC50 ([3]; read-out: Potency (nM) ELISA (EC50), PrP^Sc ELISA, dividing ScN2a-cl3 cells): 2.85 µM | EC50 ([7]; ScN2a-cl3 cells, read-out: EC50 (nM): Western): 1990 nM | EC50 ([7]; read-out: Potency (nM) Western (EC50), dividing ScN2a-cl3 cells): 1990 nM

COC(=O)c1[nH]c2c(c1C)C(=O)CC(c1cccs1)C2 (stereo not drawn) [IND73602]
EC50 (PrP^C in T98G cells): 0.521 µM

N#Cc1c(NC(=O)CCc2cccs2)sc2c1CCCC2 [IND82865]
EC50 (PrP^C in T98G cells): 0.242 µM

CCOc1ccccc1C1C(C#N)=C(N)Oc2cc(N(C)C)ccc21 (stereo not drawn) [IND8541]
Hepatic Extraction Ratio Human [1]: 0.77 | half-life at 1 μM [1]: 20.3 min | EC50 (PrP^C in T98G cells): 0.155 µM | Hepatic Extraction Ratio Mouse [2]: 0.97 | half-life at 1 μM [2]: 1.71 min

CCOC(=O)c1[nH]c2c(c1C)C(=O)CC(c1ccccc1)C2 (stereo not drawn) [IND126432]
EC50 (PrP^C in T98G cells): 0.144 µM

O=C(Nc1ccc(Cl)c(Cl)c1)NC(CC(=O)c1ccc([N+](=O)[O-])cc1)C(Cl)(Cl)Cl (stereo not drawn) [IND-10851]
Dividing Cells V (cell viability percentages) (N2a-cl3 cells [6]): 15% | Non-dividing Cells V (cell viability percentages) (N2a-cl3 cells [6]): 19% | Inhibition of Baseline PrP^5c (%) Dividing Cells ELISA [3]: 83% | Inhibition of Baseline PrP^5c (%) Non-dividing Cells ELISA [5]: 61%

CN(C)c1ccc2c(c1)OC(N)=C(C#N)C2c1cccs1 (stereo not drawn) [IND23846]
EC50 (PrP^C in T98G cells): 0.21 µM

Cc1ccc2[nH]c3c(c2c1)CCCC3NCC12CC3CC(CC(C3)C1)C2 (stereo not drawn) [IND-4176]
Dividing Cells V (cell viability percentages) (N2a-cl3 cells [6]): 9% | Inhibition of Baseline PrP^5c (%) Dividing Cells ELISA [3]: 98% | Inhibition of Baseline PrP^5c (%) Non-dividing Cells ELISA [5]: 53%

O=C(Nc1ccc(Cl)cc1)Nc1cc(Cl)cc(Cl)c1 [IND-5942]
Dividing Cells V (cell viability percentages) (N2a-cl3 cells [6]): 3% | Non-dividing Cells V (cell viability percentages) (N2a-cl3 cells [6]): 8% | Inhibition of Baseline PrP^5c (%) Dividing Cells ELISA [3]: 91% | Inhibition of Baseline PrP^5c (%) Non-dividing Cells ELISA [5]: 51%

CC1=CC(C)(C)N(S(=O)(=O)c2ccc(C)cc2)c2cc(C)ccc21 [IND5418]
EC50 (PrP^C in T98G cells): 0.649 µM

CC(=O)c1ccc(N2CCN(Cc3ccc(Br)s3)CC2)cc1 [IND-7190]
Dividing Cells V (cell viability percentages) (N2a-cl3 cells [6]): 8% | Non-dividing Cells V (cell viability percentages) (N2a-cl3 cells [6]): 12% | Inhibition of Baseline PrP^5c (%) Dividing Cells ELISA [3]: 97% | Inhibition of Baseline PrP^5c (%) Non-dividing Cells ELISA [5]: 34%

CCN1CCN(c2ccc(Nc3ccnc4cc5ccccc5cc34)cc2)CC1 [IND-2118]
Dividing Cells V (cell viability percentages) (N2a-cl3 cells [6]): 25% | Non-dividing Cells V (cell viability percentages) (N2a-cl3 cells [6]): 24% | Inhibition of Baseline PrP^5c (%) Dividing Cells ELISA [3]: 76% | Inhibition of Baseline PrP^5c (%) Non-dividing Cells ELISA [5]: 51%

O=C(Nc1ccc(F)c(Cl)c1)Nc1ccc(Cl)c(Cl)c1 [IND-8255]
Dividing Cells V (cell viability percentages) (N2a-cl3 cells [6]): 2% | Non-dividing Cells V (cell viability percentages) (N2a-cl3 cells [6]): 11% | Inhibition of Baseline PrP^5c (%) Dividing Cells ELISA [3]: 92% | Inhibition of Baseline PrP^5c (%) Non-dividing Cells ELISA [5]: 61%

O=C(Nc1ccc(Cl)cc1)Nc1ccc(C(F)(F)F)cc1Cl [IND-19238]
Non-dividing Cells V (cell viability percentages) (N2a-cl3 cells [6]): 9% | Inhibition of Baseline PrP^5c (%) Dividing Cells ELISA [3]: 17% | Inhibition of Baseline PrP^5c (%) Non-dividing Cells ELISA [5]: 63%
